One experiment has as its system ER. The following applies: fold over TAM; cited from earlier work.
Another experiment deals with NSCLC cell lines. The experiment can be described thus: NCI five-dose assay, NSCLC subpanel. The conditions noted are these: Homo sapiens. Format: cell-based. On the procedure:
(§1) All compounds were subjected to the NCI in vitro disease-oriented human cells screening panel assay. The human tumor cell lines of the cancer-screening panel are grown in RPMI 1640 medium containing 5% fetal bovine serum and 2 mM L-glutamine. For a typical screening experiment, cells are inoculated into 96-well microtiter plates in 100 μL at plating densities ranging from 5000 to 40,000 cells/well depending on the doubling time of individual cell lines. After cell inoculation, the microtiter plates are incubated at 37 °C, 5% CO2, 95% air, and 100% relative humidity for 24 h prior to the addition of experimental drugs. After 24 h, two plates of each cell line are fixed in situ with TCA to represent a measurement of the cell population for each cell line at the time of drug addition. Experimental drugs are solubilized in dimethyl sulfoxide at 400-fold the desired final maximum test concentration and stored frozen prior to use. At the time of drug addition, an aliquot of frozen concentrate is thawed and diluted to twice the desired final maximum test concentration with complete medium containing 50 μg/mL gentamicin. […] Bound stain is subsequently solubilized with a 10 mM trizma base, and the absorbance is read on an automated plate reader at a wavelength of 515 nm. […] Three response parameters (GI50, TGI, and LC50) were calculated for each cell line.

A further experiment has as its system MCF-7 cells. The experiment can be described thus: NCI growth inhibition on MCF-7 (single dose and five-dose, SRB). The class given is cell-based, human. The conditions noted are these: Homo sapiens, MCF7. On the procedure: Compounds were submitted to the Developmental Therapeutics Program (DTP) of the National Cancer Institute (NCI). The program uses a panel of 60 human tumor cell lines representing nine tissue types, including leukemia, non-small cell lung cancer (NSCLC), melanoma, colon cancer, ovarian cancer, CNS cancer, renal cancer, prostate cancer, and breast cancer, to screen for potential new anti-cancer agents. […] Primary screening of synthesized compounds was performed by testing a single high dose of 10 µM in the full NCI-60 panel. The percent growth of treated cells relative to the no-drug control and relative to the time zero number of cells was measured, and a mean graph was provided. The percentage inhibition was then calculated by subtracting the values obtained from 100.
All compounds were subjected to the NCI in vitro disease-oriented human cells screening panel assay. The human tumor cell lines of the cancer-screening panel are grown in RPMI 1640 medium containing 5% fetal bovine serum and 2 mM L-glutamine. For a typical screening experiment, cells are inoculated into 96-well microtiter plates in 100 μL at plating densities ranging from 5000 to 40,000 cells/well depending on the doubling time of individual cell lines. After cell inoculation, the microtiter plates are incubated at 37 °C, 5% CO2, 95% air, and 100% relative humidity for 24 h prior to the addition of experimental drugs. After 24 h, two plates of each cell line are fixed in situ with TCA to represent a measurement of the cell population for each cell line at the time of drug addition. Experimental drugs are solubilized in dimethyl sulfoxide at 400-fold the desired final maximum test concentration and stored frozen prior to use. At the time of drug addition, an aliquot of frozen concentrate is thawed and diluted to twice the desired final maximum test concentration with complete medium containing 50 μg/mL gentamicin. Additional four, 10-fold, or ½ log serial dilutions are made to provide a total of five drug concentrations plus control. Aliquots of 100 μL of these different drug dilutions are added to the appropriate microtiter wells already containing 100 μL of medium, resulting in the required final drug concentrations. Following drug addition, the plates are incubated for an additional 48 h at 37 °C, 5% CO2, 95% air, and 100% relative humidity. For adherent cells, the assay is terminated by the addition of cold TCA. Cells are fixed in situ by the gentle addition of 50 μL of cold 50% (w/v) TCA (final concentration, 10% TCA) and incubated for 60 min at 4 °C. The supernatant is discarded, and the plates are washed five times with tap water and air-dried. Sulforhodamine B (SRB) solution (100 μL) at 0.4% (w/v) in 1% acetic acid is added to each well, and plates are incubated for 10 min at room temperature. After staining, unbound dye is removed by washing five times with 1% acetic acid, and the plates are air-dried. Bound stain is subsequently solubilized with a 10 mM trizma base, and the absorbance is read on an automated plate reader at a wavelength of 515 nm. For suspension cells, the methodology is the same except that the assay is terminated by fixing settled cells at the bottom of the wells by gently adding 50 μL of 80% TCA (final concentration, 16% TCA). Compounds are screened at a dose of 10 µM, hits showing mean growth inhibition over 60 cell lines >50% are escalated for 5-dose screening assay. To construct a dose-response curve, about 60 cell lines of nine tumor subpanels were incubated with five concentrations (0.01–100 μM) for each compound. Three response parameters (GI50, TGI, and LC50) were calculated for each cell line.

The next experiment relates to prostate cell lines. Briefly: NCI five-dose assay, prostate subpanel. The class given is cell-based. The conditions noted are these: Homo sapiens. On the procedure: as §1
For the next experiment, the system named is renal cell lines. Briefly: NCI five-dose assay, renal subpanel. Format: cell-based. The conditions noted are these: Homo sapiens. On the procedure:
as §1

Another experiment relates to colon cancer cell lines. Briefly: NCI five-dose assay, colon cancer subpanel. The class given is cell-based. The following applies: Homo sapiens. On the procedure:
as §1

Usually GI50 stands for the concentration that inhibits growth by half. Low readings indicate greater sensitivity of the cells, high ones lower sensitivity of the cells. One may read the inhibition as the drop in the measured response relative to a control, in per cent. Read a high inhibition as a response far below the control.

SMILES strings stand for the structures.

Consider `CC/C(=C(\c1ccc(O)cc1)c1ccc(OCCN(C)C)cc1)c1ccccc1` [Compound 4-OH-TAM, 4-hydroxy-TAM], for which the “affinity to the ER compared to the parent drug TAM (times)” value in the experiment on ER is on record as 100.

Regarding `CC/C(=C(\c1ccccc1)c1ccc(OCCN(C)C)cc1)c1ccccc1` [TAM, Tamoxifen, reference compound], the GI50 in the experiment on NSCLC cell lines is 6.31 µM; in the experiment on MCF-7 cells (MCF-7, five-dose assay, 48 h) it was 1580 nM; in the experiment with prostate cell lines, 5.35 µM; in the experiment on renal cell lines, 5 µM; in the experiment with colon cancer cell lines it was 6.31 µM. Moreover, the inhibition at 10 µM in the experiment with MCF-7 cells (10 µM) was above 100%.

As for `CC/C(=C(\c1ccc(O)cc1)c1ccc(OCCNC)cc1)c1ccccc1` [endoxifen], the “affinity to the ER compared to the parent drug TAM (times)” value in the experiment on ER is 100.

(Values after article PMC8621172, “Manipulating Estrogenic/Anti-Estrogenic Activity of Triphenylethylenes towards Development of Novel Anti-Neoplastic SERMs” (International Journal of Molecular Sciences, 2021).)
